# Source: patent publication US8129402B2 (priority 2002, dated 2012)
# “Also recorded” adds a separate entry of the source.
# Key:
# [1] = tested on: [URE3] prion (Ure2p), NT34 strain; assay type: cell-based, Saccharomyces cerevisiae; conditions: for red halo on NT34 lawn ([URE3] secondary screen): FIG. 6
# [2] = tested on: [PSI+] prion, "strong" strain 74-D694; assay type: cell-based, Saccharomyces cerevisiae
# [3] = tested on: [URE3] prion, NT34 and CC34 strains; assay type: cell-based, Saccharomyces cerevisiae
# [4] = molecular target: PrP^sc in ScN2a-22L cells (Mus musculus, UniProt P04925); assay type: cell-based
# PrP^sc in ScN2a-22L cells, sequence (P04925 23-230 limits assumed): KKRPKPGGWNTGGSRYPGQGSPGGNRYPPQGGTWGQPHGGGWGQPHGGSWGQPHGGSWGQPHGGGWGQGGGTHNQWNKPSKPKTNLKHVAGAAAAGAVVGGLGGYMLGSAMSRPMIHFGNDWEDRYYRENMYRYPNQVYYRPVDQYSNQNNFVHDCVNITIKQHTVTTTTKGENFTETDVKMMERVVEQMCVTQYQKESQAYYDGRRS
# [5] = tested on: [PSI+] prion (prion form of the protein Sup35p), STRg6 strain; assay type: cell-based, Saccharomyces cerevisiae; conditions: for relative anti-prion activity on a dish (FIG. 4): 10 μl of a 10 mM solution applied; for activity against the [PSI+] prion (FIG. 7, validation of the screen) / activity compared with another compound in the screen: medium contains 200 μM of guanidium chloride; for synergy of action with guanidium chloride: sub-effective guanidium chloride in medium (200 μM, 500 μM)
# mammal prion PrP = mammal prion PrP (Mus musculus, UniProt P04925); conditions: cited from earlier work
# mammal prion PrP, sequence (P04925 23-230 limits assumed): as above
smiles,measurement,setting,value
Nc1nc2ccccc2c2ccccc12 [6-aminophenanthridine],red halo on NT34 lawn ([URE3] secondary screen),[1],cause the appearance of a red halo
same,curing of the [PSI+] prion in liquid medium,"[2]; 5 days liquid culture, compound alone, FIG. 5",capable of partially curing the [PSI+] prion from a significant number of cells
same,curing effectiveness with added guanidium chloride in liquid medium,[2]; plus sub-effective dose (100 μM) of guanidium chloride,increased
same,"colony colour of NT34 cells recovered around the filter, on fresh medium free of molecules",[3],red colonies
same,curing of the [URE3] prion (ability to grow on USA medium),"[3]; CC34 strain, different doses, alone",capable of curing the [URE3] prion in a significant manner
same,curing of the [URE3] prion in combination with guanidium chloride,"[3]; CC34 strain, with 200 μM of guanidium chloride",accentuated
same,elimination of the mammal prion in vitro (summary),[4],effective
same,effect on the elimination of PrPsc,[4]; at 2 and 4 μM,same effect
same,general statement of anti-prion activity in the screen,[5],particularly active
same,relative anti-prion activity on a dish (FIG. 4),[5],still more active than the Kastellpaolitines and phenanthridine
"Nc1nc2ccccc2c2ccc(Cl)cc12 [6A-8CP, 6-amino-8-chlorophenanthridine]",relative anti-prion activity on a dish (FIG. 4),[5],again increased the activity
"Nc1nc2ccccc2c2ccc(C(F)(F)F)cc12 [6A-8tFP, 6-amino-8-trifluoromethylphenanthridine]",relative anti-prion activity on a dish (FIG. 4),[5],one of the most active compounds
CC(=O)c1ccc2c(c1)N(CCCN(C)C)c1ccccc1S2 [acepromazine],activity in the mammal system (Prof. Prusiner's test),mammal prion PrP,slightly active
same,"activity against the [PSI+] prion (FIG. 7, validation of the screen)",[5],weak activity
NC(=O)N1c2ccccc2C=Cc2ccccc21 [carbamazepine],activity in the mammal system (Prof. Prusiner's test),mammal prion PrP,inactive
same,"activity against the [PSI+] prion (FIG. 7, validation of the screen)",[5],inactive
CN(C)CC/C=C1/c2ccccc2Sc2ccc(Cl)cc21 [chloroprothixene],activity in the mammal system (Prof. Prusiner's test),mammal prion PrP,inactive
same,"activity against the [PSI+] prion (FIG. 7, validation of the screen)",[5],inactive
CN(C)CCCN1c2ccccc2Sc2ccc(Cl)cc21 [chlorpromazine],"activity against the [PSI+] prion (FIG. 7, validation of the screen)",[5],a certain activity
same,activity compared with another compound in the screen,[5],clearly weaker than that of 6-aminophenanthridine
same,synergy of action with guanidium chloride,[5],strong synergy of action
Cl.N=C(N)N [guanidium chloride],colony colour of NT34 strain after treatment,[1]; 5 mM of guanidium chloride for approximately ten generations,red colonies
same,curing of [PSI+] cells (red staining of the drop of cells),"[2]; 5 mM guanidium chloride, 0.2% DMSO, after 48 hours (approximately 12 generations)",complete curing
same,"colony colour of NT34 cells recovered around the filter, on fresh medium free of molecules",[3],red colonies
O=C(CCCN1CCC(O)(c2ccc(Cl)cc2)CC1)c1ccc(F)cc1 [haloperidol],activity in the mammal system (Prof. Prusiner's test),mammal prion PrP,inactive
same,"activity against the [PSI+] prion (FIG. 7, validation of the screen)",[5],inactive
CN(C)CCCN1c2ccccc2CCc2ccccc21 [imipramine],activity in the mammal system (Prof. Prusiner's test),mammal prion PrP,inactive
same,"activity against the [PSI+] prion (FIG. 7, validation of the screen)",[5],inactive
CN(C)c1ccc2nc3ccc(=[N+](C)C)cc-3sc2c1 [methylene blue],activity in the mammal system (Prof. Prusiner's test),mammal prion PrP,inactive
same,"activity against the [PSI+] prion (FIG. 7, validation of the screen)",[5],inactive
c1ccc2c(c1)cnc1ccccc12 [phenanthridine],red halo on NT34 lawn ([URE3] secondary screen),[1],cause the appearance of a red halo
same,"colony colour of NT34 cells recovered around the filter, on fresh medium free of molecules",[3],red colonies
same,general statement of anti-prion activity in the screen,[5],particularly active
same,anti-prion activity: red halo around the filter disc (size of the halo),"[5]; 15 μl of a 10 mM solution in DMSO, medium with 0.2 mM guanidium chloride, FIG. 3",positive signal
same,activity on a medium without guanidium chloride,[5]; medium without guanidium chloride,always active
same,synergy of action with guanidium chloride,[5],activity increases significantly as a function of the quantity of guanidium chloride
CCN(CC)CCCC(C)Nc1c2ccc(Cl)cc2nc2ccc(OC)cc12 (stereo not drawn) [quinacrine],"activity against the [PSI+] prion (FIG. 7, validation of the screen)",[5],a certain activity
same,activity compared with another compound in the screen,[5],clearly weaker than that of 6-aminophenanthridine; also recorded: activity greater than the latter
COc1ccc(CCN(C)CCCC(C#N)(c2ccc(OC)c(OC)c2)C(C)C)cc1OC (stereo not drawn) [verapamil],"activity against the [PSI+] prion (FIG. 7, validation of the screen)",[5],no curative effect could be detected
